Assay results published in PubChem BioAssay AID463204 (Broad Institute, 2010).
Activity calls are given as the source filed them.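 The calls were made as follows: active = AC50 no more than ten times the top concentration tested, that is within one log above it; inconclusive = flat curve fit with activity between 30% and 70%, or invalid poor fit; inactive = AC50 beyond ten times the top tested dose.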

What follows are compounds tested on S. cerevisiae Mot1-301 ts growth rescue, BacTiter-Glo ATP luminescence (assay: restored Mot1-301 yeast growth at 38.5C – whole organism, S. cerevisiae, Mot1-301 ts mutant, luminescence, dose retest, SUMOylation pathway inhibitor project, confirmation (AID 463204);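 also: growth at restrictive 38.5 degrees C of Mot1-301 OY566 strain; actives raise luminescence by restoring growth of the ts mutant at high temperature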).

`Cc1ccc(NC(=O)Cn2nc(C)c3ccccc3c2=O)cc1` was tested. Which AC50 did it give?
The AC50 was > 42 µM (inactive).

For `Cc1n[nH]c(=O)c2c(NC(=O)COC(=O)Cc3ccc(Cl)cc3Cl)oc(C)c12`, which AC50 is on record?
Its AC50 is > 21 µM (inactive).

`CCC1C(c2ccccc2)NC(c2ccccc2)CC1(O)c1ccc(F)cc1` (stereo not given) was tested. Which AC50 did it give?
The AC50 was > 42 µM (inactive).

With `CCn1c(SCc2nc3ccccc3[nH]2)nnc1-c1cccnc1` as the compound, how does the AC50 read?
Its AC50 is > 42 µM (inactive).

For `COCCCNC(=O)c1cc2cc([N+](=O)[O-])cc(OC)c2oc1=O`, which AC50 is on record?
Its AC50 is > 42 µM (inactive).

Which AC50 does the source give for `COc1cccc(C2C(C(C)=O)=C(O)C(=O)N2CCc2c[nH]c3ccccc23)c1` (stereo not given) here?
Its AC50 is > 42 µM (inactive).

With `COCc1[nH][nH]c(=O)c1C=Nc1ccc(OC(F)(F)F)cc1` as the compound, how does the AC50 read?
Its AC50 is > 42 µM (inactive).

How did the AC50 turn out when `CC(=O)Nc1ccc(S(=O)(=O)Nc2ccc(S(=O)(=O)Nc3ncccn3)cc2)cc1` was run?
Its AC50 is > 42 µM (inactive).

With `Oc1c(Cl)cc(Cl)cc1/C=N/c1nc(-c2ccc(Cl)cc2)cs1` as the compound, how does the AC50 read?
The AC50 was 34.1 µM.

Which AC50 does the source give for `COc1cc2c(cc1OC)C(c1ccccc1C)CC(=O)N2` (stereo not given) here?
The AC50 was > 42 µM (inactive).

Which AC50 does the source give for `Cn1cnnc1-c1cccc(NS(=O)(=O)c2ccc(N3CCCC3=O)cc2)c1` here?
The AC50 was > 42 µM (inactive).

Which AC50 does the source give for `C/C=C/C(=O)OCC(=O)Nc1nc2ccc(C)cc2s1` here?
Its AC50 is > 42 µM (inactive).

`CSc1cc(C)c(OCC(=O)Nc2c(C)nn(C)c2C)c(C)c1` was tested. Which AC50 did it give?
The AC50 was > 42 µM (inactive).

Which AC50 does the source give for `C=C(C)C(=O)OC1(C(F)(F)F)Oc2cc(C)ccc2NC1=O` (stereo not given) here?
Its AC50 is 4.67 µM.

Which AC50 does the source give for `COc1ccc(NC(=O)CN(c2ccc(C(C)C)cc2)S(=O)(=O)c2c(C)noc2C)cc1OC` here?
The AC50 was > 42 µM (inactive).

`O=C(C1CCN(S(=O)(=O)N2CCC3(CC2)OCCO3)CC1)N1CCC(Cc2ccccc2)CC1` was tested. Which AC50 did it give?
The AC50 was > 42 µM (inactive).

For `CC(C)C(=O)Nc1ccc(NC(=S)NC(=O)c2ccccc2F)cc1`, which AC50 is on record?
Its AC50 is > 42 µM (inactive).

`COc1ccc(/C=C(\C#N)C(=O)c2cccn2C)cc1` was tested. Which AC50 did it give?
The AC50 was > 42 µM (inactive).

Which AC50 does the source give for `CCOC(=O)N1CCN(C(=O)c2ccc3ccccc3c2)CC1` here?
The AC50 was > 42 µM (inactive).

Which AC50 does the source give for `Cc1ccc(S(=O)(=O)NCC(=O)OCC(=O)c2ccc(Br)s2)cc1` here?
Its AC50 is > 42 µM (inactive).

Which AC50 does the source give for `Cc1ccc2cccc(OCc3nnc(SCC(=O)O)n3C)c2n1` here?
Its AC50 is > 42 µM (inactive).

With `CCN1C(=NCC(C)C)N[C@@H](c2cccc(C(F)(F)F)c2)C(C(=O)OC)=C1C` as the compound, how does the AC50 read?
Its AC50 is > 42 µM (inactive).

With `Cc1ccc(-c2csc(C3=C(O)CN(NC(=O)c4ccco4)C3=N)n2)cc1` as the compound, how does the AC50 read?
The AC50 was > 42 µM (inactive).

`COc1ccc(C(=O)O)cc1S(=O)(=O)NCCN(C)C` was tested. Which AC50 did it give?
Its AC50 is > 42 µM (inactive).

`COc1ccc(OC(=O)c2ccc(Cl)cc2)c(C(C)=O)c1` was tested. Which AC50 did it give?
Its AC50 is > 42 µM (inactive).

`COc1ccccc1OCCCn1cc(C#N)c2ccccc21` was tested. Which AC50 did it give?
Its AC50 is > 42 µM (inactive).

`O=S1(=O)NC(c2ccccc2)CC(CC2CCCCC2)O1` (stereo not given) was tested. Which AC50 did it give?
Its AC50 is 38.7 µM.

With `O=C1CCN(Cc2ccccc2)CCN1CCOc1ccccc1` as the compound, how does the AC50 read?
The AC50 was > 42 µM (inactive).

Which AC50 does the source give for `Cc1cc(C)n2nc(SCC(=O)NC3CCCC(C)C3C)nc2n1` (stereo not given) here?
Its AC50 is > 42 µM (inactive).

For `O=C(O)C1C2CCC(O2)C1C(=O)NCCC1=CCCCC1` (stereo not given), which AC50 is on record?
The AC50 was > 42 µM (inactive).

For `CC(=O)/C=C/n1c(=S)oc2ccccc21`, which AC50 is on record?
Its AC50 is 11.3 µM.

For `CN(C)c1ccc(NC(=O)CSc2nc(N)c(C(=O)Nc3ccc(N(C)C)cc3)s2)cc1`, which AC50 is on record?
The AC50 was > 42 µM (inactive).

Which AC50 does the source give for `CCCOC(=O)c1c(-c2ccc(OC)cc2)oc2ccc(-c3ccc(OC)nc3)cc12` here?
Its AC50 is > 42 µM (inactive).

For `O=C(Nc1ccc(Cl)cc1)N1CCC(c2nc(-c3ccc(F)cc3)no2)CC1`, which AC50 is on record?
Its AC50 is > 42 µM (inactive).

How did the AC50 turn out when `CCOc1ccc(NS(=O)(=O)c2ccc(C(=O)NCc3cccnc3)cc2)cc1` was run?
The AC50 was > 42 µM (inactive).

How did the AC50 turn out when `Cc1ccc(CNC(=O)CCNS(=O)(=O)c2cccs2)cc1` was run?
The AC50 was > 42 µM (inactive).

`COc1ccc(-c2c(C)nn3c(C)cc(C)nc23)cc1` was tested. Which AC50 did it give?
Its AC50 is > 42 µM (inactive).

How did the AC50 turn out when `CCN(CC(=O)N1CCCCCC1)S(=O)(=O)c1ccc(Cl)cc1` was run?
Its AC50 is > 42 µM (inactive).

`NS(=O)(=O)c1cccc(NC(=O)CSc2nnnn2-c2ccccc2)c1` was tested. Which AC50 did it give?
Its AC50 is > 42 µM (inactive).

For `Nc1cccc2c1C(=O)N(c1ccccc1)C2=O`, which AC50 is on record?
The AC50 was > 42 µM (inactive).

How did the AC50 turn out when `CC(C)Oc1ccc(CCC(=O)NNC(=O)c2ccccc2C(=O)O)cc1` was run?
Its AC50 is > 42 µM (inactive).

`O=C(Nc1ccc2nc(-c3ccc4nc[nH]c4c3)[nH]c2c1)c1cccs1` was tested. Which AC50 did it give?
The AC50 was > 42 µM (inactive).

For `CC1Cc2ccccc2N1C(=O)Cn1c(=O)cc(O)c2ccccc21` (stereo not given), which AC50 is on record?
The AC50 was > 42 µM (inactive).

Which AC50 does the source give for `C=CCSC1=C(C#N)C(c2ccc(C(C)C)cc2)CC(=O)N1` (stereo not given) here?
Its AC50 is 8.36 µM.

Which AC50 does the source give for `Cc1cc(C)cc(C(=O)Oc2cc(C)[nH]c(=O)c2[N+](=O)[O-])c1` here?
The AC50 was > 42 µM (inactive).

How did the AC50 turn out when `O=c1cnc2ccccc2n1Cc1ccccc1C(F)(F)F` was run?
Its AC50 is > 42 µM (inactive).

`COc1ccc(/C=C2/SC(=O)N(NS(=O)(=O)c3ccccc3)C2=S)cc1OC` was tested. Which AC50 did it give?
Its AC50 is > 42 µM (inactive).

`Cc1ccc(SCC(=O)O/N=C(\N)c2cccc([N+](=O)[O-])c2)cc1` was tested. Which AC50 did it give?
Its AC50 is > 42 µM (inactive).

For `Cc1nnsc1C(=O)N1CCC(CO)(Cc2ccccc2Cl)CC1`, which AC50 is on record?
Its AC50 is > 42 µM (inactive).

Which AC50 does the source give for `Cc1nc2sc(C(c3ccco3)N3CCOCC3)c(O)n2n1` (stereo not given) here?
Its AC50 is > 42 µM (inactive).
